According to PMC12607897, “Inhibition of HIV-1 replication by primer RNA packaging inhibitors” (mBio, 2025):

Columns and labels:
[1] = system: HIV-1 NL4-3 virus produced in MT4 cells; test: infectivity of virus particles by the CPRG method in HeLa P4 cells; format: cell-based; conditions: viruses recovered after MT4 cells were exposed to 10 µM drugs
Method: We used the CPRG method developed in HeLa P4 cells grown in 96-well plates to measure the infectivity of virus particles, as low levels of virus were recovered after exposure of infected MT4 cells to different drug concentrations. In this assay, expression of the LacZ gene is under the control of the HIV-1 LTR, and its level of trans-activation correlates with the level of expression of HIV-1 Tat. HeLa P4 cells were incubated with normalized amounts of virus as measured by the P24 assay, and the expression of β-galactosidase was determined by the CPRG assay (Fig. 5).
Fig 5 Infectivity of newly formed HIV-1 particles produced in the presence of drugs. MT4 cells were infected with the NL4-3 virus. […] The infectivity of HIV-1 viruses was determined by the CPRG method. […]
Replication of the NL4-3 virus was determined either by the ELISA technique or in HeLa-P4 cells by the CPRG method as described previously ([29]). These are HeLa CD4 LTR-lacZ cells in which the expression of lacZ is induced by the HIV transactivator Tat, allowing precise quantification of the infectivity of HIV-1. The viral titer was determined by quantifying β-galactosidase activity in HeLa-P4 lysates in a colorimetric assay based on the cleavage of chlorophenol red-β-D-galactopyranoside (CPRG) by β-galactosidase. The cytotoxicity is evaluated by the MTT assay.

[2] = system: HIV-1 NLENG1-IRES-GFP (NL4-3-GFP) virus in MT4 cells; test: ex vivo HIV-1 replication assay, GFP expression by flow cytometry in infected MT4 cells (multiple cycles); format: cell-based; conditions: drug 10 µM, added 36–48 h after infection, read 72 h later
Method: To test this hypothesis, azelastine, lacidipine, and cilnidipine were used in an ex vivo assay to determine their effect on HIV-1 proliferation. MT4 cells were infected with NLENG1-IRES-GFP, a virus that allows for multiple cycles of infection, and the molecules were added to the medium 36–48 h after infection, before the completion of the first round of viral infection; 72 h after the drugs were added, when two rounds of HIV-1 infection were underway, the level of GFP fluorescence was determined by flow cytometry, as a marker of HIV-1 infection (Fig. 3, left panel). HIV-1 replication was inhibited in a dose-dependent manner. […]. […] At the same time, no drug toxicity was observed, as determined by the MTT assay (Fig. 3, right panel). […] The selectivity index (SI) ([24]) of the three drugs, defined as the ratio of 50% cytotoxic concentration (CC50; >20 µM) to 50% inhibitory concentration (IC50; ~5 µM), >4.
Fig 3 Effect of the inhibitors on HIV-1 replication and cell toxicity. MT4 cells were infected with NL4-3-GFP virus. Two days after infection, inhibitors were added to the culture medium at final concentrations of 1, 3.3, or 10 µM. The final concentration of DMSO was 0.1%. Five days after infection, GFP expression was quantified by flow cytometry, and cell viability was determined by the MTT assay. NInf corresponds to non-infected cells. Six independent experiments were performed, and standard deviations are shown. A Student t-test was used to determine statistical significance compared with the control experiment with DMSO (*: P < 0.001; **: P < 0.0001).
MT4 cell line ([26]) was maintained in RPMI 1640. HEK293T and HeLa-P4 cells ([27]) were maintained in Dulbecco’s modified Eagle medium (DMEM). All media were supplemented with Glutamax and with 10% heat-inactivated fetal calf serum (Hyclone) and 1% penicillin/streptomycin (100 units/mL) (Gibco). All media were purchased from Gibco (Life Technologies Co.). All cell lines used here were incubated at 37 °C, under 5% CO2 atmosphere. HIV-1 stocks were prepared by calcium phosphate-mediated transfection of HEK293T cells, as previously described ([22]), with shuttle vector plasmids encoding HIV-1 NL4-3 (GenBank: AF324493.1) or NLENG1-IRES-GFP ([28]). The latter vector comes from the HIV NL4-3 strain and contains a gfp-IRES-nef cassette at the nef locus. […].
For NL4-3-GFP vectors, viral infection is followed by GFP expression (i.e., the percentage and geometric mean fluorescence intensity [MFI] of GFP^+ cells). Infectivity was estimated by flow cytometry using a FACS Celesta flow cytometer (BD Biosciences). Toxicity is also assessed by flow cytometry (side and forward scatter).

mLysRS = mLysRS (Homo sapiens, UniProt Q15046); test: tRNA aminoacylation assay; format: biochemical; conditions: drug added up to 1 mM
mLysRS, sequence (Q15046 31-625 isoform Q15046-2): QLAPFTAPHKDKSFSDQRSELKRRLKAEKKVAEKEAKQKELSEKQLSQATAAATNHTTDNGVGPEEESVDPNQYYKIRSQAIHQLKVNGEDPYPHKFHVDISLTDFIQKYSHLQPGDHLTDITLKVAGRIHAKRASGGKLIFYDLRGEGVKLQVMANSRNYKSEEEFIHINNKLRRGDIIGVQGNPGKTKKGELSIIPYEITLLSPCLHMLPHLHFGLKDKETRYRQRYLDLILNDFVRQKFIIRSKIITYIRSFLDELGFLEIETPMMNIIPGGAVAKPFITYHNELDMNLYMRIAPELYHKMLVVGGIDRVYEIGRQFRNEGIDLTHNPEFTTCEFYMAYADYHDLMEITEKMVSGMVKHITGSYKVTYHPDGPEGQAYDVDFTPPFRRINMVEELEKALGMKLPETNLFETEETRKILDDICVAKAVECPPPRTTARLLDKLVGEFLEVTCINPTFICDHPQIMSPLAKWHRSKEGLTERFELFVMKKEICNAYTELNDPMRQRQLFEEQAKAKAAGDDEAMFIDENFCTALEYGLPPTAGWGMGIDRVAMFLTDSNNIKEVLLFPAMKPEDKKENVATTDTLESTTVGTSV
Method: Initial rates of tRNA aminoacylation were measured at 25°C in 0.1 mL of 20 mM Imidazole-HCl buffer (pH 7.5), 100 mM KCl, 0.5 mM DTT, 12 mM MgCl2, 2 mM ATP, 180 µM ^14C-labeled lysine (NEN; 16.66 Ci/mol), and saturating amounts of global yeast tRNA ([30]). The incubation mixture contained catalytic amounts (2 nM) of mLysRS appropriately diluted in 10 mM Tris-HCl (pH 7.5), 10 mM 2-mercaptoethanol, containing bovine serum albumin at 4 mg/mL. Inhibitors were added at final concentrations ranging from 3.9 to 1,000 µM. One unit of activity is the amount of enzyme producing 1 nmol of lysine-tRNA^Lys/min, at 25°C.
Fig. S5. Effect of inhibitors on mLysRS activity. The tRNA-aminoacylation activity of mLysRS
was determined in the presence of increasing concentrations of the drugs. Two independent
experiments were performed and standard deviations are shown.
Fig. 6. Raw data of quantification of minus-strand strong stop viral DNA and viral RNA by
digital PCR from viruses recovered after 72 h incubation in the presence of 10 µM of the drugs.

CN1CCCC(n2nc(Cc3ccc(Cl)cc3)c3ccccc3c2=O)CC1 (stereo not drawn) [azelastine]
infectivity of viruses compared with wild-type viruses [1]: less than 4%
GFP fluorescence, % of the value observed when DMSO was added alone [2]: 15.2%
inhibition of Lysyl-tRNA^Lys synthesis (mLysRS): did not inhibit
